Laboratory results taken from patent publication US10906878B2, “Kinase inhibitors for the treatment of disease” (Dana-Farber Cancer Institute, Inc., priority 2013, dated 2021).

Tests used:
Format in all cases: cell-based
EGFR Del Ba/F3 cells = EGFR Del Ba/F3 cells (Homo sapiens, UniProt P00533, cells depend on it, form not given); assay: Ba/F3 cell growth inhibition (MTS assay), EGFR Del; conditions: for EGFR activity (% Control, 100 nM drug) Del: Table F; for IC50: Assay 1, Del, read-out: EGFR Ba/F3 cells IC 50 (nM) Assay 1 Del
Excerpt: (§1) The specific cDNAs encoding the oncogenic alterations (EGFR: Del 19, L858R, L718Q, L844V, Del/T790M, L858R/T790M, Del 19/L718Q, Del 19/L844V, Del 19/T790M/L718Q and L858R/T790M/L718Q; FGFR: TEL-FGFR1, TEL-FGFR2, TEL-FGFR1 V561M, TEL-FGFR2 V561M; ALK: EML4-ALK; ROS1: CD74-ROS1) were cloned into the pDNA-Dual (BD Biosciences) vector using standard molecular biology techniques. Mutations were introduced using site-directed mutagenesis (Agilent) with mutant specific primers according to the manufacturer's instructions. All constructs were confirmed by DNA sequencing. The constructs were introduced into Ba/F3 cells using retroviral infection. Polyclonal cell lines were established by puromycin selection and subsequently cultured in the absence of interleukin-3 (IL-3). Uninfected Ba/F3 cells or cell lines expressing green fluorescent protein (GFP) were used as controls.
(§2) Growth and inhibition of growth was assessed by MTS assay. This assay, a colorimetric method for determining the number of viable cells, is based on the bioreduction of 3-(4,5-dimethylthiazol-2-yl)-5-(3-carboxymethoxyphenyl)-2-(4-sulfophenyl)-2H-tetrazolium (MTS) by cells to a formazan product that is soluble in cell culture medium, can be detected spectrophotometrically and was performed according to the manufacturer's recommended conditions. Ba/F3 cells were exposed to treatment for 72 hours and the number of cells used per experiment determined empirically to assure linear growth kinetics over that time period. All experimental points were set up in six to twelve wells and all experiments were repeated at least three times. […] The curves were fitted using a non-linear regression model with a sigmoidal dose response.

[1] = target: EGFR L858R/T790M Ba/F3 cells (Homo sapiens (Human), UniProt P00533, L858R/T790M); assay: Ba/F3 cell growth inhibition (MTS assay), EGFR L858R/T790M; conditions: for EGFR activity (% Control, 100 nM drug) L858R/T790M: Table F; for IC50: Assay 1, L858R/T790M, read-out: EGFR Ba/F3 cells IC 50 (nM) Assay 1 L858R/T790M
Excerpt: as §1, §2

[2] = target: EGFR L718Q/L858R Ba/F3 cells (Homo sapiens (Human), UniProt P00533, L718Q/L858R); assay: Ba/F3 cell growth inhibition (MTS assay), EGFR L858R/L718Q; conditions: for EGFR activity (% Control, 100 nM drug) L858R/L718Q: Table F; for IC50: Assay 1, L718Q/L858R, read-out: EGFR Ba/F3 cells IC 50 (nM) Assay 1 L718Q/L858R
EGFR L858R Ba/F3 cells = EGFR L858R Ba/F3 cells (Homo sapiens (Human), UniProt P00533, L858R); assay: Ba/F3 cell growth inhibition (MTS assay), EGFR L858R; conditions: for EGFR activity (% Control, 100 nM drug) L858R: Table F; for IC50: Assay 1, L858R, read-out: EGFR Ba/F3 cells IC 50 (nM) Assay 1 L858R
Excerpt: as §1, §2

[3] = target: EGFR Del/T790M Ba/F3 cells (Homo sapiens, UniProt P00533, T790M, cells depend on it, form not given); assay: Ba/F3 cell growth inhibition (MTS assay), EGFR Del/T790M; conditions: for EGFR activity (% Control, 100 nM drug) DEL/T790M: Table F; for IC50: Assay 1, Del/T790M, read-out: EGFR Ba/F3 cells IC 50 (nM) Assay 1 Del/T790M
Excerpt: as §1, §2

[4] = target: EGFR L858R/T790M/L718Q Ba/F3 cells (Homo sapiens (Human), UniProt P00533, L718Q/L858R/T790M); assay: Ba/F3 cell growth inhibition (MTS assay), EGFR L858R/T790M/L718Q; conditions: for EGFR activity (% Control, 100 nM drug) L858R/T790M/L718Q: Table F; for IC50: Assay 1, T/L/L718Q, read-out: EGFR Ba/F3 cells IC 50 (nM) Assay 1 T/L/L718Q
Excerpt: as §1, §2

SMILES	EGFR activity (% Control, 100 nM drug) Del (EGFR Del Ba/F3 cells)	IC50 (EGFR Del Ba/F3 cells)	EGFR activity (% Control, 100 nM drug) L858R/T790M [1]	IC50 [1]	EGFR activity (% Control, 100 nM drug) L858R/L718Q [2]	IC50 [2]	EGFR activity (% Control, 100 nM drug) L858R (EGFR L858R Ba/F3 cells)	IC50 (EGFR L858R Ba/F3 cells)	EGFR activity (% Control, 100 nM drug) DEL/T790M [3]	IC50 [3]	EGFR activity (% Control, 100 nM drug) L858R/T790M/L718Q [4]	IC50 [4]
C=CC(=O)Nc1cccc(Nc2cc(N(C)C(=O)NCc3ccccc3)ncn2)c1 [Compound 17A]	28 % Control	63.9 nM	52 % Control	275 nM	81 % Control	1960 nM	2 % Control	7.62 nM	85 % Control	682 nM	85 % Control	2500 nM
C=CC(=O)Nc1cccc(N(C(=O)Nc2ccccc2)c2cc(NC)ncn2)c1 [Compound 14A]	24 % Control		75 % Control		76 % Control		1 % Control		98 % Control		87 % Control	
C=CC(=O)Nc1ccc(OC)c(Nc2cc(N(C)C(=O)NCc3ccccc3)ncn2)c1 [Compound 16A]	78 % Control		71 % Control		75 % Control		117 % Control		86 % Control		92 % Control	
CN(C)C/C=C/C(=O)Nc1cccc(Nc2cc(N(C)C(=O)Nc3ccccc3)ncn2)c1 [Compound 21A]	10 % Control		100 % Control		94 % Control		4 % Control		107 % Control		102 % Control	
COc1ccc(NC(=O)/C=C/CN(C)C)cc1Nc1cc(N(C)C(=O)Nc2ccccc2)ncn1 [Compound 20A]	2 % Control	2.58 nM	26 % Control	99.1 nM	48 % Control	256 nM	2 % Control	0.994 nM	126 % Control	211 nM	93 % Control	917 nM
C=CC(=O)Nc1ccc(OC)c(Nc2cc(N(C)C(=O)Nc3ccccc3)ncn2)c1 [Compound 74A]		5.16 nM		215 nM		243 nM		0.572 nM		278 nM		780 nM
C=CC(=O)Nc1cccc(Nc2cc(N(C)C(=O)Nc3ccccc3)ncn2)c1 [Compound 13A]	13 % Control		71 % Control		90 % Control		3 % Control		90 % Control		89 % Control	
